Results on one substance are retold here after patent US6399570B1, “Antimicrobial/endotoxin neutralizing polypeptide” (priority 1999, dated 2002).

One assay has as its system E. coli 0111. In words: Galactosamine-sensitized, leukopenic mouse model of bacteremic lethality. Type of assay: in vivo, CF-1 mice. Conditions: 100 μM, i.p., simultaneous with lethal E. coli dose; 10% in untreated animals. The method, then:
The ultimate protective potential of the LF 6 kDa polypeptide in a host-defense against bacterial infection was determined by testing in an acute, galactosamine-sensitized, leukopenic mouse model system (Bucklin et al., J. Infect. Dis. 174: 1249-1254 (1996)). In this model, mice were made leukopenic to suppress their endogenous host defense systems and then sensitized to the effects of Gram-negative endotoxins by galactosamine treatment while injecting a lethal intraperitoneal dose of E. coli. […] This rescue from lethality dramatically illustrates the protective potential of the polypeptide in vivo and is likely due to its combined antimicrobial and anti-endotoxin properties.
Generation of galactosamine-sensitized, leukopenic mouse model system. CF-1 mice were rendered immunocompromised by cyclophosphamide treatment three days prior to galactosamine-sensitizing them to the lethal effects of injection with an LD90 dose of E. coli 0111 (Bucklin et al., J. Infect. Dis. 174: 1249-1254 (1996)). Under these conditions, circulating leukocytes were reduced by 85% and the LD90 was determined to be 5×10^3 CFU E. coli.

The subject of the next assay is E. coli. In words: Ionic strength effect on antimicrobial activity. Type of assay: cell-based. The settings on record: 25 μM polypeptide. As for the experimental part:
For example, reducing the ionic strength from 150 mM NaCl to 50 mM NaCl reduces the number of viable bacteria after exposure by ˜10,000-fold.
Determining ionic strength effect on antimicrobial activity. E. coli were cultured overnight as described earlier. […] To control for the effects of salt alone on culture growth, the ratio of CFU in polypeptide treated cultures to that in untreated control cultures, grown in the same salt concentration but lacking any polypeptide treatment, was calculated for each salt concentration examined. These values were then normalized to the ratio calculated for CFUs measured at […], the lowest salt concentration tested, and plotted on the Y-axis versus increasing concentration of salt on the X-axis.

For “6 kDa polypeptide: 6 kDa fragment produced by cathepsin D digestion of human LF, amino acids 1-49 of SEQ ID NO: 2 (GRRRRSVQWCAVSQPEATKCFQWQRNMRKVRGPPVSCIKRDSPIQCIQA; listed as Homo sapiens)”, the “survival rate of infected animals” value in the assay with E. coli 0111 stood at 70%. In the assay with E. coli (from 150 mM NaCl to 50 mM NaCl), the “reduction of number of viable bacteria on reducing ionic strength” value is ~10,000 fold. For the same substance, the “growth inhibiting activity at elevated ionic strength” value in the assay on E. coli (ionic strengths equal to or greater than 200 mM NaCl) is “essentially lost”.
